14 molecules from ChEMBL document CHEMBL1914405, “Discovery of novel spirocyclic inhibitors of fatty acid amide hydrolase (FAAH). Part 1: identification of 7-azaspiro[3.5]nonane and 1-oxa-8-azaspiro[4.5]decane as lead scaffolds” (Bioorg Med Chem Lett, 2011) can be followed below.

Calls of active or inactive are those of the source. The calls are words filed in the database; no cut-off is given here.

Data set [1] addresses T1, Fatty-acid amide hydrolase 1 (Homo sapiens) (UniProt O00519).
T1 sequence (whole entry): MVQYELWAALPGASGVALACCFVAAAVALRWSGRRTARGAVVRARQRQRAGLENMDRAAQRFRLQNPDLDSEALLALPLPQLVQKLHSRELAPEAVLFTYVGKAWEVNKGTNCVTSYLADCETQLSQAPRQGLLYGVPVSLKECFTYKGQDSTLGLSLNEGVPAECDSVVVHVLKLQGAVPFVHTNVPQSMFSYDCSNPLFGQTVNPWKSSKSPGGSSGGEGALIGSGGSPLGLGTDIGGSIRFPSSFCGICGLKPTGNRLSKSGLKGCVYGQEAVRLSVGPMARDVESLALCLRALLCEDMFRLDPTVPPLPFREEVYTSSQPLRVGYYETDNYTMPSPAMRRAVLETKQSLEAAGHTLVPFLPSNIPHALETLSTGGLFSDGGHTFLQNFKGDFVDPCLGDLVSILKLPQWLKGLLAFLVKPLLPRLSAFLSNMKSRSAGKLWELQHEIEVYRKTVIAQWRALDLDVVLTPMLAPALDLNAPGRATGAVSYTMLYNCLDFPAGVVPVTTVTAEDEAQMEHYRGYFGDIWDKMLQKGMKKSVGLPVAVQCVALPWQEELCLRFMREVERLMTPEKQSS
Put plainly: Ratio of Kinact to Ki for human FAAH by enzyme coupled assay.

Data set [2] concerns the target Voltage-gated inwardly rectifying potassium channel KCNH2 (Homo sapiens, UniProt Q12809). Put plainly: Inhibition of human ERG.
Another data set deals with Rattus norvegicus. The experiment in a line: Analgesic activity against complete Freund's adjuvant-induced pain in rat at 25 mg/kg, ip. Type of data set: functional, organism-based. Also on record: dose 25 mg/kg.

Chain of Voltage-gated inwardly rectifying potassium channel KCNH2 (Q12809 whole entry): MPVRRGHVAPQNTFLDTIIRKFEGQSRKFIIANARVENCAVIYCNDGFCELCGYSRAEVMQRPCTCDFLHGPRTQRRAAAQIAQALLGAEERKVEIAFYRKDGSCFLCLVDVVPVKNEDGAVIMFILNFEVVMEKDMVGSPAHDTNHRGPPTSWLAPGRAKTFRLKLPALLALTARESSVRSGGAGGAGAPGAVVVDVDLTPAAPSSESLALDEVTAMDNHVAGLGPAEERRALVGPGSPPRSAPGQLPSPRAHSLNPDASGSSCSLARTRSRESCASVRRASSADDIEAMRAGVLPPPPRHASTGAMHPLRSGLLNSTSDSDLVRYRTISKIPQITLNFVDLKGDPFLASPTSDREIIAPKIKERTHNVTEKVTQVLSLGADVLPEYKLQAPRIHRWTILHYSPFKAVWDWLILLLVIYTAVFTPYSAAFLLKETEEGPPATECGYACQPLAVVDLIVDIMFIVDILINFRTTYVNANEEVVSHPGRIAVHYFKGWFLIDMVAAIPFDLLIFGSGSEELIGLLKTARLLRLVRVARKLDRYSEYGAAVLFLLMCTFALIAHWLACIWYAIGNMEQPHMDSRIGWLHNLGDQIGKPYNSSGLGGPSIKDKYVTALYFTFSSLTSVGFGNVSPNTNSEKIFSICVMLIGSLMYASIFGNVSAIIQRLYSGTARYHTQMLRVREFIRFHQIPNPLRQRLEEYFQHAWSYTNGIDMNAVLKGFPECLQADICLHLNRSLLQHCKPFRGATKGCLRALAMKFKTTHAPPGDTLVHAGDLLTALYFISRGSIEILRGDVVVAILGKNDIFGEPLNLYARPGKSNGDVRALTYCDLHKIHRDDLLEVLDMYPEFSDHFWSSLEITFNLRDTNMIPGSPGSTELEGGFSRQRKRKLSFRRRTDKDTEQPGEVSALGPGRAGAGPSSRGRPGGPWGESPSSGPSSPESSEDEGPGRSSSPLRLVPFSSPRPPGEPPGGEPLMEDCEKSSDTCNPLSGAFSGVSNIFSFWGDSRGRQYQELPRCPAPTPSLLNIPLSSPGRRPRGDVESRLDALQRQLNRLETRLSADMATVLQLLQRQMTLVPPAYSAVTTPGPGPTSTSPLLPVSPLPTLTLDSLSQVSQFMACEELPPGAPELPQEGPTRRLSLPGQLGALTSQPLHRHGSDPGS

As to `O=C(Nc1cccnn1)N1CCC2(CC1)CC(c1cccc(Oc3ccc(C(F)(F)F)cn3)c1)CO2` (racemic), the Ratio in data set [1] was found to be 3130 M⁻¹ s⁻¹.

As to `O=C(Nc1cccnn1)N1CCC2(CC1)CC(c1cccc(Oc3ccc(C(F)(F)F)cn3)c1)C2`, in data set [1], the Ratio turned out to be 1570 M⁻¹ s⁻¹. Further, the “inhibition (INH)” value in data set [2] is listed as “Active”.

Regarding `O=C(Nc1cccnn1)N1CCC2(CC1)C[C@@H](c1cccc(Oc3ccc(C(F)(F)F)cn3)c1)CO2`, the Ratio in data set [1] came to 1340 M⁻¹ s⁻¹.

On to `O=C(Nc1cccnc1)N1CCC2(CC1)CC(c1cccc(Oc3ccc(C(F)(F)F)cn3)c1)C2`, for which the Ratio in data set [1] was determined as 914 M⁻¹ s⁻¹.

Turning to `O=C(Nc1cccnc1)N1CCC2(CC1)CC(Cc1cccc(Oc3ccc(C(F)(F)F)cn3)c1)CO2` (stereo not drawn), in data set [1], the Ratio was found to be 846 M⁻¹ s⁻¹.

Consider `Cc1noc(NC(=O)N2CCC3(CC2)CC(c2cccc(Oc4ccc(C(F)(F)F)cn4)c2)CO3)c1C` (stereo not drawn), for which, in data set [1], the Ratio was found to be 515 M⁻¹ s⁻¹.

As to `O=C(Nc1cccnn1)N1CCC2(CCC(c3cccc(Oc4ccc(C(F)(F)F)cn4)c3)O2)CC1` (stereo not drawn), the Ratio in data set [1] came to 229 M⁻¹ s⁻¹.

Consider `O=C(Nc1cccnn1)N1CCC2(CC1)CC(Cc1cccc(Oc3ccc(C(F)(F)F)cn3)c1)C2`, for which the Ratio in data set [1] is 272 M⁻¹ s⁻¹.

`O=C(Nc1cccnn1)N1CCC2(CC1)CC(CCc1cccc(Oc3ccc(C(F)(F)F)cn3)c1)C2`: in data set [1], the Ratio was determined as 344 M⁻¹ s⁻¹.

As to `O=C(Nc1cccnn1)N1CCC2(CC1)CN(c1cccc(Oc3ccc(C(F)(F)F)cn3)c1)C2`, the Ratio in data set [1] was 18.3 M⁻¹ s⁻¹.

Regarding `O=C(Nc1cccnc1)N1CCC2(CC1)CC(c1cccc(Oc3ccc(C(F)(F)F)cn3)c1)CO2` (stereo not drawn), the Ratio in data set [1] was found to be 2080 M⁻¹ s⁻¹.

Turning to `O=C(Nc1cccnn1)N1CCC2(CC1)C[C@H](c1cccc(Oc3ccc(C(F)(F)F)cn3)c1)CO2`, the Ratio in data set [1] is 3040 M⁻¹ s⁻¹. The “inhibition (INH)” value in data set [2] is recorded as “Active”.

Regarding `Cc1noc(NC(=O)N2CCC3(CC2)CC(c2cccc(Oc4ccc(C(F)(F)F)cn4)c2)C3)c1C`, the result with Rattus norvegicus was Active. Moreover, the Ratio in data set [1] was 1760 M⁻¹ s⁻¹. The “inhibition (INH)” value in data set [2] is listed as “Active”.

In the case of `O=C(Nc1cccnn1)N1CCC2(CCC(c3cccc(Oc4ccc(C(F)(F)F)cn4)c3)C2)CC1` (stereo not drawn), the Ratio in data set [1] is 307 M⁻¹ s⁻¹.
